From article PMC8371902, “Phase 1 study of M2698, a p70S6K/AKT dual inhibitor, in patients with advanced cancer” (Journal of Hematology & Oncology, 2021)

How the values were obtained:
pS6 in tumor tissue = tested on: pS6 in tumor tissue; set-up: method as in PMID 27186432; conditions: preclinical ref 21; cited from earlier work
[1] = tested on: phospho-S6 (pS6) in peripheral blood mononuclear cells; experiment: pS6 in PBMCs by flow cytometry, PK/PD Emax model
Experimental: Pharmacodynamic biomarker analysis consisted of measuring levels of phospho-S6 (pS6) by flow cytometry in peripheral blood mononuclear cells (PBMCs) collected on cycle 1, days 1 and 15 at predose, 2, 4, and 8 h, and at predose on cycles ≥ 2, days 1, 8 and 15; and by immunohistochemistry in tumor biopsies obtained at baseline and on treatment (cycle 2, day 1; from the same tumor when possible).

[2] = set-up: method as in PMID 27186432; conditions: preclinical studies ref 21; cited from earlier work

Q: Which results are given for `NC(=O)c1cccc2c(N[C@H](CN3CCC3)c3ccc(Cl)c(C(F)(F)F)c3)ncnc12` [M2698]?
A: Inhibition of pS6 in tumor tissue (pS6 in tumor tissue): dose-dependently inhibits pS6 in tumor tissue; EC50, PK/PD model of pS6 in PBMCs (plasma concentration for 50% inhibition) ([1]; NONMEM estimate): 1643 ng/mL; Emax, PK/PD model of pS6 in PBMCs ([1]; NONMEM estimate): 0.148; Inhibition of pS6 levels in PBMCs ([1]; in vivo): dose- and concentration-dependent inhibition; Blood–brain barrier crossing [2]: capacity to cross the blood–brain barrier
